Reference: patent US6426330B1, “Satiety inducing composition comprising Neuropeptide Y analogues and methods of inducing satiety and treating a disease or condition associated with it” (East Carolina University, priority 1995, dated 2002)
Square brackets hold non-standard residues; d marks the D form. Ends that are not written are not given here.

Tested on: normotensive Sprague-Dawsley rats
Experiment: In vivo activity: blood pressure and heart rate after intravenous dosing in catheterised rats
Set-up: species or system rat
Experimental: Male Sprague-Dawley rats obtained from Charles River Laboratories, Wilmington, Mass., and weighing 276-300 g, were group housed at 22° C. and kept on 12 hour light/dark cycle. Food and water were provided ad lib.
Animals were anesthetized with sodium pentobarbital (65 mg/kg) and under sterile conditions a one-inch incision was made in the fold of the left leg to expose the femoral blood vessels. Two lengths of PE-50 tubing filled with 10% heparin were inserted into the left femoral artery and left femoral vein for measurement of blood pressure and for drug delivery, respectively. The tubings were tunneled under the skin and exposed through the mid-scapular region. Animals were allowed at least 24 hours recovery prior to experiments.
A force transducer (Spectramed Model P23XL, Grass Instruments, Quincy, Mass., USA), and tachograph (Model 7P44D, Grass Instruments) was used for recording of systolic and diastolic pressures and heart rate from the femoral artery catheter. Patency of catheters was verified by flushing with either saline or 10% heparin.
A dose of either 30, 100, 500, 800 or 1000 nM/kg ([…]) of NPY27-36 (D-Tyr^27,36, D-Thr^32) (prepared as described in Example 1 above), or saline was delivered to the animal via the catheter in the left femoral vein. Changes in systolic and diastolic pressures and heart rater were recorded from the catheter in the left femoral artery over a 10 minute time interval.

[1] = given intraveneously, doses 30-1000 nM/kg, recorded over 10 minutes, normotensive rats

## [dY]INLI[dT]RQR[dY]-NH2 [NPY27-36 (D-Tyr^27,36, D-Thr^32)]
Dose 30 nM/kg i.v.
  changes in mean arterial pressure and heart rate vs saline: failed to produce changes that were significantly different from saline treatment
Dose 100 nM/kg i.v.
  changes in mean arterial pressure and heart rate vs saline: failed to produce changes that were significantly different from saline treatment
Dose 500 nM/Kg i.v.
  mean arterial pressure vs saline-treated controls: significantly different decreases
Dose 500 nM/kg i.v.
  heart rate vs saline controls: significantly different increases
Dose 800 nM/Kg i.v.
  mean arterial pressure vs saline-treated controls: significantly different decreases
Dose 1000 nM/Kg i.v.
  mean arterial pressure vs saline-treated controls: significantly different decreases
Dose 1000 nM/kg i.v.
  heart rate vs saline controls: significantly different increases
[1]
  heart rate: increase
  mean arterial pressure: dose-dependent decrease
